Measured values from paper PMC3718762, “Differential Disruption of EWS-FLI1 Binding by DNA-Binding Agents” (PLoS ONE, 2013).
Starred links: 1 amine or outer side, 2 acyl side, 3 side chain; linkers in the order of their positions; H or OH if unused. Positions of bridges follow the written chain, without caps; N, C: chain ends. Non-standard residues stand in square brackets, D forms with d. Residues, ends and D or L forms follow the SMILES beside them. Chains are numbered I, II in the order given. Actinocin(9to1) = Cc1c2oc3c(C)ccc(C(=O)[*:1])c3nc-2c(C(=O)[*:2])c(N)c1=O; NMeV = CN[C@H](C(=O)O)C(C)C; Sar = CNCC(=O)O

Legend:
NR0B1 mRNA = assay: Quantitative RT-PCR of endogenous NR0B1 mRNA in A673 cells; assay type: cell-based
Experimental: Duplicate wells of A673 cells were treated overnight with different concentration of actinomycin D. RNA was extracted with absolutely mRNA purification kit from Stratagene. 0.5 µg total RNA was mixed with 1 µl iScript Reverse Transcriptase, 10 µl of 2× RT-PCR reaction mix for probes from Bio-Rad, 1 µl of NR0B1, RPS26 and TP53 probes from Life Technologies and H2O up to 20 µl total volume. RT-PCR was performed in an iCycler iQ with 50°C for 10 minutes for one cycle; 95°C, 15 seconds, 60°C 40 seconds for 40 cycles. Each RNA sample was technically duplicated, and relative abundance was calculated by the delta Ct method.

Cado-es = assay: MTT cell viability assay; assay type: cell-based; details: 44 hours
Experimental: (§1) Cells were seeded at a density of 1.5×10^5/ml with 100 µl/well in 96 well plates and treated with actinomycin D at 158 nM, 50 nM, 15.8 nM, 5 nM, 1.58 nM, 0.5 nM and 0 (6 wells/treatment) for 44 hours. CellTiter 96 was used to assess cell viability after a 2 hr incubation at 37°C. IC50 values were calculated using Prism.
(§2) To determine if cells driven by EWS-FLI1 are more sensitive to actinomycin D, we assessed cell growth and viability using a MTT assay after 44 hrs exposure to actinomycin D. Although all cell lines were affected by actinomycin D, the Ewing sarcoma cell lines were as a group more sensitive by comparison to other cell lines tested (Figure 5).

Skov-3 = assay: MTT cell viability assay; assay type: cell-based; details: Homo sapiens, SK-OV-3, 44 hours
Experimental: as §1, §2

PC-3 = assay: MTT cell viability assay; assay type: cell-based; details: Homo sapiens, 44 hours
Experimental: as §1, §2

Hela = assay: MTT cell viability assay; assay type: cell-based; details: Homo sapiens, 44 hours
Experimental: as §1, §2

Ovcar-3 = assay: MTT cell viability assay; assay type: cell-based; details: Homo sapiens, 44 hours
Experimental: as §1, §2

TC-32 = assay: MTT cell viability assay; assay type: cell-based; details: Homo sapiens, 44 hours
Experimental: as §1, §2

TC-71 = assay: MTT cell viability assay; assay type: cell-based; details: 44 hours
Experimental: as §1, §2

EW-8 = assay: MTT cell viability assay; assay type: cell-based; details: EW8, 44 hours
Experimental: as §1, §2

A673 = assay: MTT cell viability assay; assay type: cell-based; details: Homo sapiens, 44 hours
Experimental: as §1, §2

NR0B1 promoter = assay: NR0B1-Luc firefly luciferase reporter assay in A673 cells; assay type: cell-based, human; details: Homo sapiens, A673, 16 h, read-out: IC50 for inhibition of NR0B1 activity
Excerpt: The NR0B1 promoter was amplified from human genomic DNA using the 5′ primer- […] and 3′ primer - […]. NR0B1 promoter amplicon was cloned into the NheI and HindIII sites in the pGL.3Basic vector. The 5′ primer-[…] was used to amplify a truncated NR0B1 promoter in which the entire EWS-FLI1 binding region (GGAA repeats) was deleted to construct pGL.3b-NR0B1del. All constructs were confirmed by sequencing. All other plasmids were previously described.
Ewing sarcoma A673 cells at 50% confluence in 100 mm dishes were transfected with both 5.8 µg of pGL.3b-NR0B1 and 0.2 µg of pGL.3b-Ubc-RL reporter plasmids as above. Eight hours post-transfection, cells were trypsinized and 600 ul (2×10^5) of cells were added to each well of 24 well plates. 5 µl of different concentration of compounds or DMSO control were added to each well. Each treatment was performed in triplicate. Cells were incubated for 16 hours, then cells were lysed in 100 µl of lysis buffer and 10 µl of cell lysate was used for the dual luciferase assay. Renilla luciferase activity was used as an internal control for normalization of nonspecific transcriptional inhibition or cytotoxic effects. Experiments were repeated three times. IC50 values were calculated using Prism (Graphpad).
To determine the effect of compounds on EWS-FLI1 activity in cells, we used a reporter assay comprised of the NR0B1 promoter, a prototypical EWS-FLI1-regulated gene, driving expression of firefly luciferase. Renilla luciferase driven by the Ubiquitin C promoter (UbC-RL) was used as an internal control. Confirming prior studies, the NR0B1 promoter was verified to be highly responsive to EWS-FLI1, whereas the UbC promoter activity was not subject to regulation by EWS-FLI1 (Figure S1).

p53 = molecular target: T1, p53 (Homo sapiens, UniProt P04637); assay: AlphaScreen proximity assay (counterscreen), binding of recombinant p53 to cognate DNA oligo
T1 construct: made in house; host or cells: bacteria (pGex-6P-1-p53); plasmid was a gift from Dr. Guangchao Sui
T1 sequence (P04637 whole entry, species assumed): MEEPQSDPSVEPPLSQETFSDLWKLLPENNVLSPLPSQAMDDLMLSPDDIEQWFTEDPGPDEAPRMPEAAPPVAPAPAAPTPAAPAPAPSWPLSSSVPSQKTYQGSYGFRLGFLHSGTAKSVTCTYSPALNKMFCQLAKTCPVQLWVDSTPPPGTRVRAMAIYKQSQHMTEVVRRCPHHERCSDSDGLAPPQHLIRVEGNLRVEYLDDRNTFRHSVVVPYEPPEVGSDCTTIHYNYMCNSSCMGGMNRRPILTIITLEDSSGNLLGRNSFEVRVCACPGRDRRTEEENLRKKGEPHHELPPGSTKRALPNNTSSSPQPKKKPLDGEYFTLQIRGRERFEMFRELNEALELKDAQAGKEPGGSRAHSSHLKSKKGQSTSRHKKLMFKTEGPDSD
Excerpt: An AlphaScreen assay for binding of recombinant EWS-FLI1 to DNA was previously described. Briefly, recombinant EWS-FLI1 and p53 were synthesized in bacteria transformed with pGex-6P-1-EWS-FLI1 or pGex-6P-1-p53, and bound to AlphaScreen acceptor beads. A biotinylated oligonucleotide containing two copies of the EWS-FLI1 binding motif or p53 binding motifs was bound to AlphaScreen donor beads. For EWS-FLI1, the oligo sequence was: […]. The p53 binding oligo sequence was: […]. This assay was used to screen 5,200 compounds, as previously described. IC50 values were calculated with the GraphPad Prism software package.
We developed a homogeneous AlphaScreen assay to assess the binding of recombinant EWS-FLI1 to DNA [18]. A parallel assay assessing binding of p53 to DNA was used as a counterscreen. Briefly, in these proximity assays, recombinant GST-EWS-FLI1 or GST-p53 was bound to glutathione-conjugated AlphaScreen acceptor beads, and a synthetic biotinylated oligonucleotide (oligo) containing tandem EWS-FLI1 or p53 binding sites was bound to streptavidin-conjugated AlphaScreen donor beads. Binding of GST-EWS-FLI1 or GST-p53 to the cognate oligo allows singlet oxygen transfer from donor to acceptor beads when excited at 680 nm, with resulting light emission between 520–620 nm.

EWS-FLI1 = assay: AlphaScreen proximity assay, binding of recombinant EWS-FLI1 to cognate DNA oligo

For Cc1c2oc3c(C)ccc(C(=O)N[C@@H]4C(=O)N[C@H](C(C)C)C(=O)N5CCC[C@H]5C(=O)N(C)CC(=O)N(C)[C@@H](C(C)C)C(=O)O[C@@H]4C)c3nc-2c(C(=O)N[C@@H]2C(=O)N[C@H](C(C)C)C(=O)N3CCC[C@H]3C(=O)N(C)CC(=O)N(C)[C@@H](C(C)C)C(=O)O[C@@H]2C)c(N)c1=O [Actinomycin D] (I: T[dV]P[Sar][NMeV] / II: T[dV]P[Sar][NMeV]; ester I:1-I:C, II:1-II:C; linker I:N-II:N via Actinocin(9to1)), the “Expression of NR0B1 and control transcripts” value (NR0B1 mRNA; A673 cells, overnight, 50 nM) was “similarly attenuated”, the “Expression of endogenous NR0B1 mRNA” value (NR0B1 mRNA; A673 cells, overnight, 5 -10 nM, versus control transcripts p53 and RPS26) was “preferentially attenuated” and the “Window between preferential effect on EWS-FLI1 and global inhibition of transcription” value (NR0B1 mRNA; in cells) was < 10 fold. For the same molecule, the IC50 (Cado-es) was 7 nM, the IC50 (Skov-3) was > 20 nM and the IC50 (PC-3) was > 20 nM. For the same molecule, the IC50 (Hela) was > 20 nM, the IC50 (Ovcar-3) was > 20 nM and the IC50 (TC-32) was 1 nM. For the same molecule, the IC50 (TC-71) was 3 nM, the IC50 (EW-8) was 3.5 nM and the IC50 (A673) was 2.5 nM. For the same molecule, the IC50 (NR0B1 promoter) was 2.8 nM, the IC50 (p53) was > 10000 nM and the “Disruption of EWS-FLI1 binding compared with p53 binding in the parallel assays” value (EWS-FLI1; EWS-FLI1 versus p53) was “greatest differential effect”. For the same molecule, the IC50 (EWS-FLI1; read-out: IC50 EWS-FLI1, disruption of recombinant EWS-FLI1 binding to DNA) was 45 nM.
